# Laboratory results published in patent US9586999B2, “Methods and compositions related to improving properties of pharmacological agents targeting nervous system” (University of Utah Research Foundation, priority 2006, dated 2017).
# Test system: corneal kindling
# Assay: Mouse corneal kindling acquisition
# Format: in vivo
# Method: CF#1 mice were randomized to receive either vehicle (0.9% saline) or NAX-5055. Mice in the NAX-5055 group received two doses of NAX-5055 twelve (12 h) and 1 h prior to their first kindling stimulation. One hour (1 h) prior to each subsequent stimulation, mice in the NAX-5055 treated group received another dose of NAX-5055 (4 mg/kg, i.p.). Mice were stimulated twice daily for 16 days. Results are expressed as the mean seizure score per stimulation. As noted above, the results for the NAX-5055 treated mice segregated into two populations; i.e., sensitive (green line) and insensitive (blue line).
# Mice treated with NAX-5055 (see legend to Figure X for experimental details) segregated into two treatment groups; i.e., NAX-5055 sensitive and NAX-5055 insensitive. Results are expressed as the number of stimulations required to reach a particular seizure score+/−S.E.M.; i.e., 1 to 5. […] One Way ANOVA, p<0.0209; post hoc analysis: saline vs. NAX-5055 insensitive, p>0.05; NAX-5055 sensitive vs. NAX-5055 insensitive, p<0.05.
# Daily electrical stimulation via the cornea results in a stable kindled state within 15-20 days. This is an ideal model to initially assess the ability of selected galanin analogs to prevent kindling acquisition because the amount of peptide required is much lower than what is required for a rat kindling study. Those compounds found to be effective in preventing the acquisition of kindling are subsequently evaluated in a more traditional rat kindling model; i.e., amygdala kindled rat. For the proposed studies two groups of mice (n=8 mice per group) are randomized to receive either vehicle or peptide prior to each kindling stimulation. […] At the time to peak effect (obtained from the 6 Hz study), they are stimulated via corneal electrodes with a subconvulsive current (50 Hz, 3 mA, for 3.0 sec) and observed for the presence or absence of seizure activity. Seizure activity is scored according to the criteria established by Racine et al., (1972). Animals receive two stimulations per day until they display their first Stage 5 behavioral seizure and then once daily until they display stable secondarily generalized seizures (5 consecutive Stage 4-5 seizures). Peptide treatment continues in the experimental group until the point that the control mice become fully kindled. At this point, mice in both groups are permitted a one-week stimulus and treatment-free week. On the 8th day, mice in both groups are stimulated in the absence of peptide or vehicle and their seizure score recorded.
# The ability of the blood-brain-barrier penetrant galanin-based neuropeptide NAX-5055 to prevent the development of corneal kindling was studied in CF#1 mice. […] Following stimulation seizure activity was scored on a scale of 0-5 as established by Racine (1972).
# [1] = 4 mg/kg i.p. twice daily, NAX-5055 sensitive group
substance,measurement,setting,value
Sar-Trp-Thr-Leu-Asn-Ser-Ala-Gly-Tyr-Leu-Leu-Gly-Pro-Lys-Lys-(Lys-palm)-Lys-NH2 [NAX 5055],kindling acquisition,4 mg/kg i.p.,can delay kindling acquisition
same,Stage 5 seizures,[1],none of the mice in the NAX-5055 sensitive group reached Stage 5 seizures
same,more stimulations to reach Stage 2 and Stage 3 seizures,[1],35-40%
same,stimulations required to reach a Stage 1 seizure,[1],two times more stimulations
